The NIST ThermoML archive (doi:10.1016/j.fluid.2008.03.012)

Settings: 101.33 kPa, Liquid

CCOC(=O)CC(C)=O [ethyl 3-oxobutanoate]
Settings	mass density [kg/m3]
278.15 K	1043.1
288.15 K	1034.5
298.15 K	1023.5
313.15 K	1008
328.15 K	992.1
338.15 K	981.9
348.15 K	971.4
